Measured values published in ChEMBL document CHEMBL5291721, “A preclinical secondary pharmacology resource illuminates target-adverse drug reaction associations of marketed drugs” (Nat Commun, 2023).

Assays:
Adenosine receptor A3 = molecular target: T1, Adenosine receptor A3 (Homo sapiens, UniProt P0DMS8)
T1 sequence (P0DMS8 whole entry): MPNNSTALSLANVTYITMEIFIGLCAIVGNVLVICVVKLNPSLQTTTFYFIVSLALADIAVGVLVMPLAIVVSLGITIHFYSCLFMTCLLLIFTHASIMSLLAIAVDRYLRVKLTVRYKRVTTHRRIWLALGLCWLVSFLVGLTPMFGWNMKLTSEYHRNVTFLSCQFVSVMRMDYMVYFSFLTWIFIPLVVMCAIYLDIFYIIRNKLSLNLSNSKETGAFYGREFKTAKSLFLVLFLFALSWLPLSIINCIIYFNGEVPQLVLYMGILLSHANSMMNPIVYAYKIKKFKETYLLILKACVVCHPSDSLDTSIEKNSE

[1] = molecular target: Beta-1 adrenergic receptor (Homo sapiens, UniProt P08588); type: functional
Chain of Beta-1 adrenergic receptor (P08588 whole entry): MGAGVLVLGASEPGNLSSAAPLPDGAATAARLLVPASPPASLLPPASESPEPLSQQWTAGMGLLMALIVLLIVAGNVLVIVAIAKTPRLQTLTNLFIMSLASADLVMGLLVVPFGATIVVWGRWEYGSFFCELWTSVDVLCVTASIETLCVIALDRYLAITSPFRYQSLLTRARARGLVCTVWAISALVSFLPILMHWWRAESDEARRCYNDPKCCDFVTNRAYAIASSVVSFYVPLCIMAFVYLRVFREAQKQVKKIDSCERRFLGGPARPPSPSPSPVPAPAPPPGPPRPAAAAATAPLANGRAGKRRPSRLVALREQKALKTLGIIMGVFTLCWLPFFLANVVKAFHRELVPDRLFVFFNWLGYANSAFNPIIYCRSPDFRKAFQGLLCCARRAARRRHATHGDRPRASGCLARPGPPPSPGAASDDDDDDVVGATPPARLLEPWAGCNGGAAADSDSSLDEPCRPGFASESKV

[2] = molecular target: T2, Cholecystokinin receptor type A (Homo sapiens, UniProt P32238)
T2 sequence (P32238 whole entry): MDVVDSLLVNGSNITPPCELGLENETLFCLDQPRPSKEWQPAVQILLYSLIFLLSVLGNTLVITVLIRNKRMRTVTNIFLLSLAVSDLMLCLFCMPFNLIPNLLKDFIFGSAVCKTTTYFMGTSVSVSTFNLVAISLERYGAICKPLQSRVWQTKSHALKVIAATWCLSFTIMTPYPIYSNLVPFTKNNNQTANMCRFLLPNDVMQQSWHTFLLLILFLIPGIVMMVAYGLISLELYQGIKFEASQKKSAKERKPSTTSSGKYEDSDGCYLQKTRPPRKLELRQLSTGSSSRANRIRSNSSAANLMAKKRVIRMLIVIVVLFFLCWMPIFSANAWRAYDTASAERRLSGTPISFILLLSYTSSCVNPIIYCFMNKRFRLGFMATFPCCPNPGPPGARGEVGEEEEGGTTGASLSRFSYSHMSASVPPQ

[3] = molecular target: Muscarinic acetylcholine receptor M3 (Homo sapiens, UniProt P20309)
Chain of Muscarinic acetylcholine receptor M3 (P20309 whole entry): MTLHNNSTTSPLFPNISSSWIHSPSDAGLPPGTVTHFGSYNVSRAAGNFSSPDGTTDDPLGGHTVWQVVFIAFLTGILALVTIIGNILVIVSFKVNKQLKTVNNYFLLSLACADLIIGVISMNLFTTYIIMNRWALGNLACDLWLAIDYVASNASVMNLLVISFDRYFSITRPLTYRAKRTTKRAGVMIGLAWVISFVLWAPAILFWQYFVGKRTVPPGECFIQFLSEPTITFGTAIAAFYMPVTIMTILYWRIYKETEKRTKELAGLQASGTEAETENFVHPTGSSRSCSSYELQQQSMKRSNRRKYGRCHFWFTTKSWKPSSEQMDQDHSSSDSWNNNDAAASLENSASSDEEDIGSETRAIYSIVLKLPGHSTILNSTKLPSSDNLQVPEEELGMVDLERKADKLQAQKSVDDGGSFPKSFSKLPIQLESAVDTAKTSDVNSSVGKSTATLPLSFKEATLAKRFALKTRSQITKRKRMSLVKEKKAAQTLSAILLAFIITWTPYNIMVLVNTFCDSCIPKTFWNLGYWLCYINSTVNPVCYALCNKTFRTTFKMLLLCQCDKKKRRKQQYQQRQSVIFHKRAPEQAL

[4] = molecular target: T3, 5-hydroxytryptamine receptor 3A (Homo sapiens, UniProt P46098); type: functional
T3 sequence (P46098 whole entry): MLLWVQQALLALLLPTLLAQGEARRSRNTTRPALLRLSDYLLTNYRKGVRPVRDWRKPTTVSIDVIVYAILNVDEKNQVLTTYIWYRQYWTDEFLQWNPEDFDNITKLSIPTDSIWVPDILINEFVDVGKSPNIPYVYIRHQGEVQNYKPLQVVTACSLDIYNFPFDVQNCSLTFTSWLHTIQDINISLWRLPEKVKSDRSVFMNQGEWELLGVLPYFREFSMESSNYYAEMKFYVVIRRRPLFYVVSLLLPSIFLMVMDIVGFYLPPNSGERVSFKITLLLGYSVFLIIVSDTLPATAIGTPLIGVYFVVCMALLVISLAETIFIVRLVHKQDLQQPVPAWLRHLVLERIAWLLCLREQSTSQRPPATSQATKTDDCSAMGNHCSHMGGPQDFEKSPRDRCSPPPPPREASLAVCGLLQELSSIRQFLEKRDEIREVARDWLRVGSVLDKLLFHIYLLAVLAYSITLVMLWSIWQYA

Glucocorticoid receptor = molecular target: T4, Glucocorticoid receptor (Homo sapiens, UniProt P04150)
T4 sequence (P04150 whole entry): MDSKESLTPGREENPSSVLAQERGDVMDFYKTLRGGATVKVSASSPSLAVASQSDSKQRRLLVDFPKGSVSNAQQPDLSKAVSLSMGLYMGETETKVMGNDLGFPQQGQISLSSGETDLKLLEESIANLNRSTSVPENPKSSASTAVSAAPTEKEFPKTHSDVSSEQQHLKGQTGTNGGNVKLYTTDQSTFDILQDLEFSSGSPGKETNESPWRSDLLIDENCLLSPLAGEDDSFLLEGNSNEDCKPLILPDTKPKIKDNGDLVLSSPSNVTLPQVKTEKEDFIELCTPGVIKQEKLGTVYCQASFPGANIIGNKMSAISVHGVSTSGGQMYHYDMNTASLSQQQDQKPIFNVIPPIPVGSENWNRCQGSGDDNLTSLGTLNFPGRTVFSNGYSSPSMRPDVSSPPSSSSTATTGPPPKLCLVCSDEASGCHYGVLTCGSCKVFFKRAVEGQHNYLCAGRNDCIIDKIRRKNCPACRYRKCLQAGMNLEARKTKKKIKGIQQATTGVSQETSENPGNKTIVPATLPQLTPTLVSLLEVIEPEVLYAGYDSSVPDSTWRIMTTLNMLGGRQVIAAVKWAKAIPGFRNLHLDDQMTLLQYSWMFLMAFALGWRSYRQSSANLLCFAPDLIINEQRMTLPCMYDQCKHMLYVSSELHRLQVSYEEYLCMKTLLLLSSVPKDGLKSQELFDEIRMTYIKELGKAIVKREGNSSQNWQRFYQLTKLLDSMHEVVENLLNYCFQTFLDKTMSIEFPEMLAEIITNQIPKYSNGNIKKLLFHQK

[5] = molecular target: Delta-type opioid receptor (Homo sapiens, UniProt P41143)
Chain of Delta-type opioid receptor (P41143 whole entry): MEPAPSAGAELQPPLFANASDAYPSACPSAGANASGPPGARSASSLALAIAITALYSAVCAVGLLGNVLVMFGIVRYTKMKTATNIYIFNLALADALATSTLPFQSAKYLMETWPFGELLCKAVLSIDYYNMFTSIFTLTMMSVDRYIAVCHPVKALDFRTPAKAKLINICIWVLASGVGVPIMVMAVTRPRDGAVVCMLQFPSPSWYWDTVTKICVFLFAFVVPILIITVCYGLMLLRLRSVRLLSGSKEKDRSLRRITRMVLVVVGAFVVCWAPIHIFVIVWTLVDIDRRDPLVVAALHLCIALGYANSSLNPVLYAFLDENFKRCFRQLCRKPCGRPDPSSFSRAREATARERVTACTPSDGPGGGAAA

[6] = molecular target: Kappa-type opioid receptor (Homo sapiens, UniProt P41145)
Chain of Kappa-type opioid receptor (P41145 whole entry): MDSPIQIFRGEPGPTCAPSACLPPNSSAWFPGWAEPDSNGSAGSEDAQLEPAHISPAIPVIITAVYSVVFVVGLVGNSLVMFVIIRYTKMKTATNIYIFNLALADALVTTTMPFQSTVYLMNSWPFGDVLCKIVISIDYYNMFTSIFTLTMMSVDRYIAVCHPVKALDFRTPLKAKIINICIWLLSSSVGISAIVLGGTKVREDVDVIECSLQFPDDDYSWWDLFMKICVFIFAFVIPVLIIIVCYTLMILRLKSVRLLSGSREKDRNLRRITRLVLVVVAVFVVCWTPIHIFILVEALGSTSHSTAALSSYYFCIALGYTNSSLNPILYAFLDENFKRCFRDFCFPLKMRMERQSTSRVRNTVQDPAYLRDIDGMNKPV

Thromboxane A2 receptor = molecular target: T5, Thromboxane A2 receptor (Homo sapiens, UniProt P21731)
T5 sequence (P21731 whole entry): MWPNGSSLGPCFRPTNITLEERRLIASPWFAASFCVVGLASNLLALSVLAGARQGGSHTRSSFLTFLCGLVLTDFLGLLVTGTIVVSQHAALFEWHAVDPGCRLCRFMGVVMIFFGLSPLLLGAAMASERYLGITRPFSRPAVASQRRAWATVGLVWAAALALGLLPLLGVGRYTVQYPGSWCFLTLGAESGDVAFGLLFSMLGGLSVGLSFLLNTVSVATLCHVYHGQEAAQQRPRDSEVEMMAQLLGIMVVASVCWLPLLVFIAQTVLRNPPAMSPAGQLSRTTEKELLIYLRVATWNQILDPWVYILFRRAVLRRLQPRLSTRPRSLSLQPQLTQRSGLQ

[7] = molecular target: Sodium-dependent noradrenaline transporter (Homo sapiens, UniProt P23975)
Chain of Sodium-dependent noradrenaline transporter (P23975 whole entry): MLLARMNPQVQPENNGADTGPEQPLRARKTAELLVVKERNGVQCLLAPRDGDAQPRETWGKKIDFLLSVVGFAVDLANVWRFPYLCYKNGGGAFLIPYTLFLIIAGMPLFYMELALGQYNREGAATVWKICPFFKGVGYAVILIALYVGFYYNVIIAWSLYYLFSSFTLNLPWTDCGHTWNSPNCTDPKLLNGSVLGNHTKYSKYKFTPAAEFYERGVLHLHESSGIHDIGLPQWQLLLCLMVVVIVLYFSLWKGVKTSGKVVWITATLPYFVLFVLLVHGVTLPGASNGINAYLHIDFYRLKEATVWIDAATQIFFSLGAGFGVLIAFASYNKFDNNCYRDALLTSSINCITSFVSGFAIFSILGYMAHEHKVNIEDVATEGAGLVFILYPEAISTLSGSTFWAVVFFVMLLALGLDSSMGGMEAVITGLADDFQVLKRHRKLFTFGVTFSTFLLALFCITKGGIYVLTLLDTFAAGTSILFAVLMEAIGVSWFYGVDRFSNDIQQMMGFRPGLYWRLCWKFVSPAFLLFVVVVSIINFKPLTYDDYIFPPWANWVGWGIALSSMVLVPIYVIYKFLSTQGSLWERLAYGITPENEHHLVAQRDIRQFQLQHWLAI
Also: assay procedure not described here.

Row | Compound | AC50 (Adenosine receptor A3) [µM] | AC50 [1] [µM] | AC50 [2] [µM] | AC50 [3] [µM] | AC50 [4] [µM] | AC50 (Glucocorticoid receptor) [µM] | AC50 [5] [µM] | AC50 [6] [µM] | AC50 (Thromboxane A2 receptor) [µM] | AC50 [7] [µM]
1 | N#Cc1ccccc1-c1cc(-c2ccccn2)cn(-c2ccccc2)c1=O | > 30 | > 30 | > 30 | > 30 | > 30 | > 30 | > 30 | > 30 | > 30 | > 30
2 | N=C(N)NCCCCCCC(=O)NC(O)C(=O)NCCCCNCCCN (stereo not given) | > 30 | > 30 | > 30 | > 30 | > 30 | > 30 | > 30 | > 30 | > 30 | > 30
3 | C=C[C@@]1(C)CC(=O)[C@]2(O)[C@@]3(C)[C@@H](O)CCC(C)(C)[C@@H]3[C@H](OC(=O)CCN(C)C)[C@H](OC(C)=O)[C@@]2(C)O1 | > 30 | > 30 | > 30 | > 30 | > 30 | > 30 |  | > 30 | > 30 | > 30
4 | CC(=O)OCC(=O)[C@@]1(O)CC[C@H]2[C@@H]3CCC4=CC(=O)CC[C@]4(C)C3=CC[C@@]21C [ANECORTAVE ACETATE] | > 10 | > 10 | > 10 | > 30 | > 30 | 1.7 | > 30 | > 10 | > 10 | > 10
5 | O=C(CCCN1CCC(n2c(O)nc3ccccc32)CC1)c1ccc(F)cc1 [BENPERIDOL] | > 30 | 8.5 | > 30 | 12 | > 30 | > 30 | > 30 | 1.15 | > 30 | 12
6 | CCN(CC)C(=O)C1CN2CCc3cc(OC)c(OC)cc3C2CC1OC(C)=O (stereo not given) [BENZQUINAMIDE] | > 30 | > 30 | > 30 | > 30 | > 30 | > 30 | > 30 | > 30 | > 10 | > 30
7 | COCCOC(=O)C1=C(C)NC(C)=C(C(=O)OC/C=C/c2ccccc2)C1c1cccc([N+](=O)[O-])c1 (stereo not given) [CILNIDIPINE] | 4.8 | > 30 | > 30 | > 30 | > 30 | 6.5 | > 30 | > 30 | 21 | > 30
8 | CCC(C)(Oc1ccc(C2(c3ccc(OC(C)(CC)C(=O)O)cc3)CCCCC2)cc1)C(=O)O (stereo not given) [CLINOFIBRATE] | 20 | > 30 | > 30 | > 30 | > 30 | > 30 | > 30 | > 30 | > 30 | > 30
9 | N[C@H](Cc1cc(I)c(Oc2cc(I)c(O)c(I)c2)c(I)c1)C(=O)O [DEXTROTHYROXINE] | 12.5 | > 10 | > 30 | > 30 | > 30 | 25 | > 30 | > 10 | 21.9 | > 30
10 | CCCCC[C@H](O)/C=C/[C@H]1[C@H](O)CC(=O)[C@@H]1C/C=C\CCCC(=O)O [DINOPROSTONE] | > 30 | > 30 | > 30 | > 30 | > 30 | > 30 | > 30 | 22 | 3.5 | > 30
11 | COC(=O)N[C@@H](C)CNc1nccc(-c2cn(C(C)C)nc2-c2cc(Cl)cc(NS(C)(=O)=O)c2F)n1 [ENCORAFENIB] | > 30 | > 30 | > 30 | 8.7 | > 30 | > 30 | > 30 | 13.7 | > 30 | > 30
12 | Clc1ccc2c(c1)C(c1ccccc1)=NCc1nncn1-2 [ESTAZOLAM] | > 30 | > 10 | > 30 | > 30 | > 30 | > 30 | > 30 | 20.1 | > 30 | > 30
13 | CCCN(CC)C(CC)C(=O)Nc1c(C)cccc1C (stereo not given) [ETIDOCAINE] | > 30 | > 30 | > 30 | > 30 | > 30 | > 30 | > 30 | > 30 | > 30 | > 30
14 | Clc1ccc(C(Cn2ccnc2)OCc2ccc(Sc3ccccc3)cc2)c(Cl)c1 (stereo not given) [FENTICONAZOLE] | 6.4 | > 30 | > 30 | 21 | > 30 | > 30 | > 30 | 2.5 | > 30 | 
15 | Nc1nc(F)nc2c1ncn2[C@@H]1O[C@H](COP(=O)(O)O)[C@@H](O)[C@@H]1O [FLUDARABINE PHOSPHATE] | > 30 | > 30 | > 30 | > 30 | > 30 | > 30 | > 30 | > 30 | > 30 | > 30
16 | CCOC(=O)Nc1ccc2c(c1)N(C(=O)CCN1CCOCC1)c1ccccc1S2 [MORICIZINE] | > 30 | > 30 | > 30 | > 30 | > 30 | > 30 | > 30 | > 30 |  | > 30
17 | CN1CCN(c2c(F)cc3c(=O)c(C(=O)O)cn4c3c2SCC4)CC1 [RUFLOXACIN] | > 30 | > 30 | > 30 | > 30 | > 30 | > 30 | > 30 | > 30 | > 30 | 
18 | COc1cc2c(Nc3ccc(Br)cc3F)ncnc2cc1OCC1CCN(C)CC1 [VANDETANIB] | 23 | > 30 | > 10 | 24 | > 30 | > 30 | > 30 | > 30 |  | > 30
